For data set [1], the system named is Namalwa, a Burkitt lymphoma cell line. Briefly: In vitro potency (WST-8 cell viability assay), Namalwa. The following applies: read-out: IC50 Namalwa. It counts as cell-based. As to the method: (§1) General Procedure Used: Samples of unconjugated free drug compounds or drug conjugates were added to 96-well flat bottomed tissue culture plates and titrated using serial dilutions to cover the desired molar range. Antigen positive (Ag^+) or Antigen negative (Ag^−) cells were added to the wells in specific cell densities in such a way that there were triplicate samples for each drug concentration for each corresponding cell line. The plates were then incubated at 37° C. in an atmosphere of 5% CO2 for 4-5 days depending on the cell line. COLO 205 (1,000 cells/well), Namalwa (3,000 cells/well), HEL 92.1.7 (3,000 cells/well)—4 days; RH30 (1,000 cells/well), HL60/QC (5,000 cells/well), Ramos (10,000 cells/well), KB (2,000 cells/well), BJAB (2,000 cells/well), NB4 (3,000 cells/well)—5 days, RPMI 8226 (8,000 cells/well)—6 days.
(§2) At the end of the incubation period cytotoxic potencies were then assessed using a WST-8 based cell viability assay and surviving cells were measured by developing with WST-8 (2-7 hours). The absorbance in each well was measured and the surviving fraction of cells at each concentration was plotted to reveal the cytotoxicity and/or antigen specificity (of the conjugates).
(§3) Using the general procedure described above, the cytotoxicity of the unconjugated free drug compounds was measured against seven cell lines: KB, a HeLa cell contaminant, HL60/QC, an acute myeloid leukemia cell line, Namalwa, a Burkitt lymphoma cell line, NB4, an acute promyelocytic leukemia cell line, HEL92.1.7, an erythroleukemia cell line, RPMI8226, a multiple myeloma cell line and BJAB, a B-cell leukemia cell line. […] The potency and specificity of the antibody-drug conjugates were measured against antigen-expressing cells, with and without the additions of an excess amount of blocking unconjugated antibody to show specificity of the killing effect. The MY9-6-drug conjugate was extremely potent towards three different antigen-expressing cells: HL60/ATCC, HL60/QC and NB-4, despite the very low antigen expression in NB4 cells. […] Similarly, the huFOLR1-drug conjugate was effective in killing antigen-expressing KB cells in a specific manner. Results are illustrated in FIGS. 25 and 26.

In another data set the test system is HL60/QC cells. Briefly: In vitro potency (WST-8 cell viability assay), HL60/QC. It counts as cell-based, human. The procedure:
as §1, §2, §3
To compare in vitro potency measurements for the subject conjugates prepared with and without imine reactive reagent, such as sodium bisulfite, huMy9-6-BMPS-1f, huMy9-6-sulfo-SPDB-1f, and huMy9-6-Drug 2 were prepared with and without sodium bisulfite using the in situ sulfonation method (wherein the respective compounds of the invention was first mixed with sodium bisulfite and a bifunctional crosslinker bearing a reactive group, then the reaction mixture, without further purification, was reacted with the huMy9-6 monoclonal antibody as the cell-binding agent). IC50s for the conjugates on HL60-QC cells are shown below.

The test system of data set [2] is RPMI8226, a multiple myeloma cell line. Briefly: In vitro potency (WST-8 cell viability assay), RPMI8226. In kind it is cell-based. The following applies: Homo sapiens. The procedure: as §1, §2, §3
Another data set concerns KB cells. Briefly: In vitro potency (WST-8 cell viability assay), KB. In kind it is cell-based. The following applies: Homo sapiens, read-out: IC50 KB. The procedure: as §1, §2, §3
Data set [3] relates to BJAB, a B-cell leukemia cell line. Briefly: In vitro potency (WST-8 cell viability assay), BJAB. In kind it is cell-based. The note with it: Homo sapiens, read-out: IC50 BJAB. As to the method: as §1, §2, §3
Data set [4] relates to HEL92.1.7, an erythroleukemia cell line. Briefly: In vitro potency (WST-8 cell viability assay), HEL92.1.7. In kind it is cell-based. The note with it: Homo sapiens. As to the method: as §1, §2, §3
In data set [5] the test system is NB4, an acute promyelocytic leukemia cell line. Briefly: In vitro potency (WST-8 cell viability assay), NB4. In kind it is cell-based. The following applies: read-out: IC50 NB4. As to the method: as §1, §2, §3
The conditions of data set [6]: Phase I clinical evaluation; cited from earlier work.
Another data set relates to HL60/QC tumors. Briefly: In vivo efficacy in HL60/QC tumor bearing nude mice. The following applies: HL60-QC tumor xenografts; for T/C %: ~20 μg/kg drug dose. As to the method: In this study, the anti-tumor activity of huMY9-6-SPDB-1f was investigated in female nude mice bearing HL60/QC tumors, a human acute myeloid leukemia model. HL60/QC tumor cells, 2×10^6 cells/mouse were subcutaneously inoculated at a volume of 0.1 mL/mouse in the area over the right shoulder of female athymic nude mice, 5 weeks of age. Eight days after tumor cell inoculation mice were randomized into groups (n=6 per group) by tumor volume. Treatment was initiated the day of randomization, and groups included a control group dosed with PBS (200 μL/injection), or a single treatment at various doses (5 to 100 μg/kg) of huMY9-6-SPDB-1f (50 μg/kg 1f dose corresponded to 2.5 mg/kg antibody dose). […] The minimum effective dose was estimated to be 20 μg/kg, which is about 35-fold lower that the maximum tolerated dose.
To compare in vivo efficacy of the subject conjugates prepared with or without an imine reactive group, huMy9-6-Drug 2 were formulated with or without 50 μM sodium bisulfite, and the conjugates were used to treat mice bearing HL60-QC tumor xenografts.

Setting [7] is: Homo sapiens, HL-60, free drug, read-out: IC50 HL60/QC.
Where [8] appears, read: RPMI-8226, free drug, read-out: IC50 RPMI8226.
[9] abbreviates: HEL 92.1.7, free drug, read-out: IC50 HEL92.1.7.

This is an account of results in patent publication USRE49918E1, “Cytotoxic benzodiazepine derivatives” (priority 2011, dated 2024).

Where two headings read alike, the source gives them in different places. A value given as a limit tells only on which side of the number the result lay.

Take `COc1cc2c(cc1OCc1cccc(COc3cc4c(cc3OC)C(=O)N3c5ccccc5C[C@H]3CN4)c1)N=C[C@@H]1Cc3ccccc3N1C2=O` [Compound 29b]: the IC50 in data set [1] (free drug) is 0.003 nM; in the data set on HL60/QC cells (setting [7]) it was 6 pM; in [2] (setting [8]), 0.005 nM; with KB cells (free drug), 0.007 nM; in [3] (free drug) it was 0.003 nM; in data set [4] (setting [9]) it was 0.007 nM. The IC50 in [5] (free drug) came to 0.007 nM.
For the molecule `COc1cc2c(cc1OCc1cc(COc3cc4c(cc3OC)C(=O)N3c5ccccc5C[C@H]3CN4)cc(CSCC(C)(C)SSC)c1)N=C[C@@H]1Cc3ccccc3N1C2=O` [Compound 27e], the IC50 with HL60/QC cells (setting [7]) is 90 pM; in [2] (setting [8]) it was 0.24 nM; with KB cells (free drug) it was 0.39 nM; in data set [3] (free drug), 0.12 nM; in data set [4] (setting [9]), 0.2 nM; in data set [5] (free drug), 0.13 nM.
For `COc1cc2c(cc1OCc1cc(COc3cc4c(cc3OC)C(=O)N3c5ccccc5C[C@H]3CN4)cc(CSCC(C)(C)SSC)c1)NC[C@@H]1Cc3ccccc3N1C2=O` [Compound 27f], the IC50 is 1700 pM in the data set with HL60/QC cells (setting [7]); over 3 nM in [2] (setting [8]); 4.4 nM in the data set with KB cells (free drug); 1 nM in data set [3] (free drug); 1.8 nM in [4] (setting [9]); 1.1 nM in data set [5] (free drug).
In the case of `COCCOCCOCCN(CC(C)(C)S(C)=S)c1cc(COc2cc3c(cc2OC)C(=O)N2c4ccccc4C[C@H]2C=N3)cc(COc2cc3c(cc2OC)C(=O)N2c4ccccc4C[C@H]2CN3)c1` (stereo partly drawn) [Compound 1d], the IC50 was 0.069 nM in data set [1] (free drug), 32 pM in the data set with HL60/QC cells (setting [7]) and 0.18 nM in the data set on KB cells (free drug).
Consider `COc1cc2c(cc1OCc1cccc(COc3cc4c(cc3OC)C(=O)N3c5ccccc5C[C@H]3CN4)c1)NC[C@@H]1Cc3ccccc3N1C2=O` [Compound 29c], for which the IC50 came out at 0.013 nM in data set [1]; 30 pM with HL60/QC cells (Homo sapiens, HL-60, read-out: IC50 HL60/QC); 0.16 nM in [2] (RPMI-8226, read-out: IC50 RPMI8226); 0.057 nM in the data set with KB cells; 0.015 nM in data set [3]; 0.027 nM in data set [4] (HEL 92.1.7, read-out: IC50 HEL92.1.7). For the same molecule, the IC50 in [5] came out at 0.023 nM.
As to `C=C1C[C@H]2C=Nc3cc(OCCCOc4cc5c(cc4OC)C(=O)N4CC(=C)C[C@H]4C=N5)c(OC)cc3C(=O)N2C1` [SJG-136], the maximum tolerated dose in [6] is 45 μg/m^2.
Turning to `COc1cc2c(cc1OCc1cc(COc3cc4c(cc3OC)C(=O)N3c5ccccc5C[C@H]3C=N4)cc(CSCC(C)(C)SSC)c1)N=C[C@@H]1Cc3ccccc3N1C2=O` [Compound 27d], the IC50 stood at 50 pM with HL60/QC cells (setting [7]); 0.07 nM in data set [2] (setting [8]); 0.23 nM in the data set with KB cells (free drug); 0.04 nM in data set [3] (free drug); 0.14 nM in data set [4] (setting [9]); 0.039 nM in data set [5] (free drug).
With `COc1cc2c(cc1OCc1cccc(COc3cc4c(cc3OC)C(=O)N3c5ccccc5C[C@H]3C=N4)c1)N=C[C@@H]1Cc3ccccc3N1C2=O` [Compound 29a], the IC50 in [1] (free drug) turned out to be 0.002 nM; in the data set on HL60/QC cells (setting [7]), 1 pM; in [2] (setting [8]), 0.011 nM; in the data set with KB cells (free drug) it was 0.004 nM; in [3] (free drug), 0.001 nM; in data set [4] (setting [9]) it was 0.0031 nM. Also, in data set [5] (free drug), the IC50 came to 0.0023 nM.

B1: huMy9-6-Drug 2 (conjugate, chains of the INN, looked up)
VH: QVQLVESGGGVVQPGRSLRLSCAASGFTFSSFGMHWVRQAPGKGLEWVAYISSGSFTIYYADSVKGRFTISRDNSKNTLYLQMNSLRAEDTAVYYCARMRKGYAMDYWGQGTLVTVSS
VL: DVVMTQSPLSLPVTLGQPASISCRSSQIIIHSDGNTYLEWFQQRPGQSPRRLIYKVSNRFSGVPDRFSGSGSGTDFTLKISRVEAEDVGVYYCFQGSHVPHTFGQGTKVEIK
modifications: Drug 2 payload
Regarding B1, the IC50 was over 3000 pM in the data set on HL60/QC cells (HL60-QC cells, antigen blocking with 1 μM unconjugated huMy9-6, conjugate prepared with NaHSO3 (+), read-out: IC50 (pM) huMy9-6 blocking); over 3000 pM in the data set on HL60/QC cells (HL60-QC cells, antigen blocking with 1 μM unconjugated huMy9-6, conjugate prepared without NaHSO3 (−), read-out: IC50 (pM) huMy9-6 blocking); 6.8 pM in the data set with HL60/QC cells (HL60-QC cells, conjugate prepared with NaHSO3 treatment (+), read-out: IC50); 16 pM with HL60/QC cells (HL60-QC cells, conjugate prepared without NaHSO3 treatment (−), read-out: IC50). The “Minimum effective dose (μg/kg drug)” value turned out to be 19 μg/kg drug with HL60/QC tumors (conjugate formulated with 50 μM sodium bisulfite (+)) and 18 μg/kg drug with HL60/QC tumors (conjugate formulated without 50 μM sodium bisulfite (−)). The values for the T/C % in the data set on HL60/QC tumors (formulated with 50 μM sodium bisulfite (+)) and with HL60/QC tumors (formulated without sodium bisulfite (−)) were 16% and 20%, respectively.
